{"source": "patent US7897175B2", "about": "“Dosage forms comprising a CETP inhibitors and an HMG-CoA reductase inhibitor” (Bend Research, Inc., priority 2002, dated 2011)", "key": {"[1]": {"assay": "Aqueous solubility of torcetrapib", "format": "physicochemical", "conditions": "aqueous solution (not specified further), water, about 22° C.", "description": "The CETP inhibitor may be any compound capable of inhibiting the cholesteryl ester transfer protein. Solid amorphous dispersions are particularly useful for CETP inhibitors that have sufficiently low aqueous solubility, low bioavailability or slow rate of absorption such that it is desirable to increase their concentration in an aqueous environment of use. […] Many CETP inhibitors have even lower solubilities (some even less than 0.1 μg/mL), and require dramatic concentration enhancement to be sufficiently bioavailable upon oral dosing for effective plasma concentrations to be reached at practical doses.\nCETP inhibitors, in particular torcetrapib, and methods for preparing such compounds are disclosed in detail in U.S. Pat. Nos. 6,197,786 and 6,313,142, in PCT Application Nos. WO 01/40190A1, WO 02/088085A2, and WO 02/088069A2, the disclosures of which are herein incorporated by reference. Torcetrapib has an unusually low solubility in aqueous environments such as the lumenal fluid of the human GI tract. The aqueous solubility of torceptrapib is less than about 0.04 μg/ml. Torcetrapib must be presented to the GI tract in a solubility-enhanced form in order to achieve a sufficient drug concentration in the GI tract in order to achieve sufficient absorption into the blood to elicit the desired therapeutic effect."}, "[2]": {"assay": "In vitro dissolution test using a microcentrifuge method (PBS)", "format": "physicochemical", "conditions": "for AUC90 (area under the aqueous concentration versus time curve after 90 minutes) / C1200 (concentration at 1200 minutes) / MDC90 (maximum concentration of torcetrapib in solution during the first 90 minutes): receptor solution PBS; for Torcetrapib Concentration / AUC: PBS pH 6.5, 37° C.; for Torcetrapib Concentration: 1000 μg/mL if all drug dissolved", "description": "The spray-dried solid amorphous dispersion was evaluated in an in vitro dissolution test using a microcentrifuge method. In this test, 7.2 mg of the spray-dried solid amorphous dispersion was placed into a microcentrifuge tube. The tube was placed in a 37° C. sonicating bath, and 1.8 mL phosphate buffered saline (PBS) at pH 6.5 and 290 mOsm/kg was added, resulting in a torcetrapib concentration of 1000 μg/mL if all of the drug had dissolved. The sample was quickly mixed using a vortex mixer for about 60 seconds. The sample was centrifuged at 13,000 G at 37° C. for 1 minute. The resulting supernatant solution was then sampled and diluted 1:6 (by volume) with methanol and then analyzed by high-performance liquid chromatography (HPLC). The contents of the tube was mixed on the vortex mixer and allowed to stand undisturbed at 37° C. until the next sample was taken. Samples were collected at 4, 10, 20, 40, 90, and 1200 minutes. The concentrations of drug obtained in these samples are shown in Table 1, which represent the average of duplicate tests.\nAs a control, an in vitro dissolution test was performed using the procedures described above except that 1.8 mg of crystalline drug was used.\nThe spray-dried solid amorphous dispersion was evaluated in an in vitro dissolution test using a microcentrifuge method. In this test, 4.5 mg of the spray -dried solid amorphous dispersion was placed into a microcentrifuge tube. The tube was placed in a 37° C. sonicating bath, and 1.8 mL phosphate buffered saline (PBS) at ph 6.5 and 290 mOsm/kg was added, resulting in a torcetrapib concentration of 1000 μg/mL if all of the drug dissolved. The sample was quickly mixed using a vortex mixer for about 60 seconds. The sample was centrifuged at 13,000 G at 37° C. for 1 minute. The resilting superatant solution was then sampled and diluted 1:6 (by volume) with methanol and then analyzed by high-performance liquid chromatography (HPLC). The contents of the tube was mixed on the vortex mixer and allowed to stand undisturbed at 37° C. until the next sample was taken. Samples were collected at 4, 10, 20, 40, 90, and 1200 minutes. The concentrations of drug obtained in these samples are shown in Table 9, which represent the average of duplicate tests. The results using crystalline drug are included in Table 9 for […]"}, "[3]": {"conditions": "Example 1 test (dispersion 25 wt % torcetrapib)"}, "[4]": {"conditions": "Example 12 test (dispersion 40 wt % torcetrapib, HPMCAS-HG)"}, "[5]": {"conditions": "time 0 min, Example 1 test (dispersion 25 wt % torcetrapib, HPMCAS-MG)"}, "[6]": {"conditions": "time 0 min, Example 12 test (dispersion 40 wt % torcetrapib, HPMCAS-HG)"}, "[7]": {"conditions": "time 4 min, Example 1 test (dispersion 25 wt % torcetrapib, HPMCAS-MG)"}, "[8]": {"conditions": "time 4 min, Example 12 test (dispersion 40 wt % torcetrapib, HPMCAS-HG)"}, "[9]": {"conditions": "time 10 min, Example 1 test (dispersion 25 wt % torcetrapib, HPMCAS-MG)"}, "[10]": {"conditions": "time 10 min, Example 12 test (dispersion 40 wt % torcetrapib, HPMCAS-HG)"}, "[11]": {"conditions": "time 20 min, Example 1 test (dispersion 25 wt % torcetrapib, HPMCAS-MG)"}, "[12]": {"conditions": "time 20 min, Example 12 test (dispersion 40 wt % torcetrapib, HPMCAS-HG)"}, "[13]": {"conditions": "time 40 min, Example 1 test (dispersion 25 wt % torcetrapib, HPMCAS-MG)"}, "[14]": {"conditions": "time 40 min, Example 12 test (dispersion 40 wt % torcetrapib, HPMCAS-HG)"}, "[15]": {"conditions": "time 90 min, Example 1 test (dispersion 25 wt % torcetrapib, HPMCAS-MG)"}, "[16]": {"conditions": "time 90 min, Example 12 test (dispersion 40 wt % torcetrapib, HPMCAS-HG)"}, "[17]": {"conditions": "time 1200 min, Example 1 test (dispersion 25 wt % torcetrapib, HPMCAS-MG)"}, "[18]": {"conditions": "time 1200 min, Example 12 test (dispersion 40 wt % torcetrapib, HPMCAS-HG)"}}, "data": [{"smiles": "CCOC(=O)N1c2ccc(C(F)(F)F)cc2[C@@H](N(Cc2cc(C(F)(F)F)cc(C(F)(F)F)c2)C(=O)OC)C[C@H]1CC", "note": "[Crystalline Drug, [2R,4S]-4-[(3,5-bis-trifluoromethyl-benzyl)-methoxycarbonyl-amino]-2-ethyl-6-trifluoromethyl-3,4-dihydro-2H-quinoline-1-carboxylic acid ethyl ester]", "values": [{"measurement": "solubility", "setting": "[1]", "value": "< 0.04", "unit": "µg/mL"}, {"measurement": "AUC90 (area under the aqueous concentration versus time curve after 90 minutes)", "setting": "[2]; [3]", "value": "<88", "unit": "min-μg/mL"}, {"measurement": "C1200 (concentration at 1200 minutes)", "setting": "[2]; [3]", "value": "<1", "unit": "µg/mL"}, {"measurement": "MDC90 (maximum concentration of torcetrapib in solution during the first 90 minutes)", "setting": "[2]; [3]", "value": "<1", "unit": "µg/mL"}, {"measurement": "AUC90 (area under the aqueous concentration versus time curve after 90 minutes)", "setting": "[2]; [4]", "value": "<88", "unit": "min-μg/mL"}, {"measurement": "C1200 (concentration at 1200 minutes)", "setting": "[2]; [4]", "value": "<1", "unit": "µg/mL"}, {"measurement": "MDC90 (maximum concentration of torcetrapib in solution during the first 90 minutes)", "setting": "[2]; [4]", "value": "<1", "unit": "µg/mL"}, {"measurement": "Torcetrapib Concentration", "setting": "[2]; [5]", "value": 0, "unit": "µg/mL"}, {"measurement": "Torcetrapib Concentration", "setting": "[2]; [6]", "value": 0, "unit": "µg/mL"}, {"measurement": "AUC", "setting": "[2]; [5]", "value": 0, "unit": "min-μg/mL"}, {"measurement": "AUC", "setting": "[2]; [6]", "value": 0, "unit": "min-μg/mL"}, {"measurement": "Torcetrapib Concentration", "setting": "[2]; [7]", "value": "<1", "unit": "µg/mL"}, {"measurement": "Torcetrapib Concentration", "setting": "[2]; [8]", "value": "<1", "unit": "µg/mL"}, {"measurement": "AUC", "setting": "[2]; [7]", "value": "<2", "unit": "min-μg/mL"}, {"measurement": "AUC", "setting": "[2]; [8]", "value": "<2", "unit": "min-μg/mL"}, {"measurement": "Torcetrapib Concentration", "setting": "[2]; [9]", "value": "<1", "unit": "µg/mL"}, {"measurement": "Torcetrapib Concentration", "setting": "[2]; [10]", "value": "<1", "unit": "µg/mL"}, {"measurement": "AUC", "setting": "[2]; [9]", "value": "<8", "unit": "min-μg/mL"}, {"measurement": "AUC", "setting": "[2]; [10]", "value": "<8", "unit": "min-μg/mL"}, {"measurement": "Torcetrapib Concentration", "setting": "[2]; [11]", "value": "<1", "unit": "µg/mL"}, {"measurement": "Torcetrapib Concentration", "setting": "[2]; [12]", "value": "<1", "unit": "µg/mL"}, {"measurement": "AUC", "setting": "[2]; [11]", "value": "<18", "unit": "min-μg/mL"}, {"measurement": "AUC", "setting": "[2]; [12]", "value": "<18", "unit": "min-μg/mL"}, {"measurement": "Torcetrapib Concentration", "setting": "[2]; [13]", "value": "<1", "unit": "µg/mL"}, {"measurement": "Torcetrapib Concentration", "setting": "[2]; [14]", "value": "<1", "unit": "µg/mL"}, {"measurement": "AUC", "setting": "[2]; [13]", "value": "<38", "unit": "min-μg/mL"}, {"measurement": "AUC", "setting": "[2]; [14]", "value": "<38", "unit": "min-μg/mL"}, {"measurement": "Torcetrapib Concentration", "setting": "[2]; [15]", "value": "<1", "unit": "µg/mL"}, {"measurement": "Torcetrapib Concentration", "setting": "[2]; [16]", "value": "<1", "unit": "µg/mL"}, {"measurement": "AUC", "setting": "[2]; [15]", "value": "<88", "unit": "min-μg/mL"}, {"measurement": "AUC", "setting": "[2]; [16]", "value": "<88", "unit": "min-μg/mL"}, {"measurement": "Torcetrapib Concentration", "setting": "[2]; [17]", "value": "<1", "unit": "µg/mL"}, {"measurement": "Torcetrapib Concentration", "setting": "[2]; [18]", "value": "<1", "unit": "µg/mL"}, {"measurement": "AUC", "setting": "[2]; [17]", "value": "<1,200 min-μg/mL"}, {"measurement": "AUC", "setting": "[2]; [18]", "value": "<1,200 min-μg/mL"}]}]}
